The subject of one assay is P. aeruginosa 216. Particulars: P. aeruginosa 216; CAMHB, 37°C, 16–20 h. Here is the method:
(§1) Briefly, bacteria were suspended in cation-adjusted Mueller–Hinton broth (CAMHB; Oxoid, UK) for antibiotics, or MHB (Oxoid, UK) for peptidomimetics to obtain 5 × 10^5 colony forming unit (CFU) ml^−1. […] Positive controls contained only microbes, and blanks contained only media. Microbial suspensions (100 µl) were added to wells, plates wrapped, and incubated at 37°C, 120 rpm for 16–20 h. After incubation, suspensions were removed, log10 diluted, and plated on Trypticase Soya Agar with phosphatidylcholine and Tween 80 to determine minimum bactericidal or fungicidal concentration (MBC or MFC). […] Geometric mean MIC of the peptoids were calculated to evaluate the broad overview of antimicrobial activity across the pathogens.

Assay [1] deals with K. pneumoniae JIE2709. Particulars: K. pneumoniae JIE2709; CAMHB, 37°C, 16–20 h. Here is the method:
as §1

For another assay, the system named is E. coli 0011. Particulars: E. coli 0011; CAMHB, 37°C, 16–20 h. As to the method: as §1
The next assay has as its system P. aeruginosa 33. Particulars: P. aeruginosa 33; CAMHB, 37°C, 16–20 h. Here is the method: as §1
A further assay concerns E. coli 005. Particulars: E. coli 005; CAMHB, 37°C, 16–20 h. Here is the method:
as §1

The next assay has as its system E. coli 0015. Particulars: E. coli 0015; CAMHB, 37°C, 16–20 h. Here is the method:
as §1

For assay [2], the system named is K. pneumoniae JIE2713. The settings on record: K. pneumoniae JIE2713; CAMHB, 37°C, 16–20 h. Here is the method:
as §1

The test system of another assay is En. cloacae 001. The settings on record: En. cloacae 001; CAMHB, 37°C, 16–20 h. As to the method: as §1
Another assay concerns K. pneumoniae JIE4212. Particulars: K. pneumoniae JIE4212; CAMHB, 37°C, 16–20 h. Here is the method:
as §1

In the next assay the test system is En. cloacae 005. Particulars: En. cloacae 005; CAMHB, 37°C, 16–20 h. As to the method:
as §1

A further assay relates to P. aeruginosa AR-1270. The settings on record: P. aeruginosa AR-1270; CAMHB, 37°C, 16–20 h. As to the method: as §1
The next assay has as its system E. coli 0010. Particulars: E. coli 0010; CAMHB, 37°C, 16–20 h. As to the method:
as §1

The next assay deals with En. cloacae 003. The settings on record: En. cloacae 003; CAMHB, 37°C, 16–20 h. Here is the method: as §1
Assay [3] has as its system K. pneumoniae JIE2713. The experiment in a line: Checkerboard microdilution synergy test. It counts as cell-based, Klebsiella pneumoniae. The settings on record: for MIC: Klebsiella pneumoniae, read-out: MIC of DrugB (alone, checkerboard); for FICDrugB / MF of antibiotic (modulation factor) / MIC of DrugB + TM8: in combination with TM8. Here is the method:
(§2) Then, 10 µl of bacteria (5 × 10^6 CFU ml^−1) or C. auris (2.5 × 10^4 CFU ml^−1) were added to each well, except for the sterility control well. […] The sterility control wells contained only MHB (or RPMI in case of C. auris), and the growth control contained 110 µl of microbial inoculum with no antimicrobials. Subsequently, the plates were incubated for 18- 24 hours at 36 ± 1 °C.
(§3) The FIC for each combination interaction was calculated as follows:
(§4) Then, the summation of FIC (ƩFIC) was calculated for each antimicrobial combination as follows: ƩFIC = FICA + FICB. […] All antimicrobial synergy experiments were repeated in at least two independent runs.
For orientation: In broth dilution the organism is exposed to a series of concentrations in liquid medium.

In the next assay the test system is A. baumannii 006. Particulars: A. baumannii 006; CAMHB, 37°C, 16–20 h. As to the method: as §1
For a further assay, the system named is A. baumannii 005. Particulars: A. baumannii 005; CAMHB, 37°C, 16–20 h. Here is the method: as §1
For a further assay, the system named is A. baumannii ATCC 19 606. Particulars: A. baumannii ATCC 19 606; CAMHB, 37°C, 16–20 h. As to the method:
as §1

Another assay relates to A. baumannii 008. The settings on record: A. baumannii 008; CAMHB, 37°C, 16–20 h. Here is the method: as §1
In another assay the test system is A. baumannii 007. Particulars: A. baumannii 007; CAMHB, 37°C, 16–20 h. As to the method:
as §1

The subject of assay [4] is K. pneumoniae JIE2709. The experiment in a line: Checkerboard microdilution synergy test. The assay is classed as cell-based, Klebsiella pneumoniae. As to the method:
as §2, §3, §4

The structures appear in SMILES notation. Bounds are passed on as bounds.

The term MIC denotes the least concentration at which growth counts as inhibited.

With `C[C@H]1[C@H](NC(=O)/C(=N\OC(C)(C)C(=O)O)c2csc(N)n2)C(=O)N1S(=O)(=O)O` [Azt, aztreonam, reference compound], the MIC of antibiotics in the assay with P. aeruginosa 216 was 4 µg/mL; in the assay on K. pneumoniae JIE2709 [1] it was >128 µg/mL; in the assay with E. coli 0011, 4 µg/mL; with P. aeruginosa 33, 128 µg/mL; with E. coli 005 it was 0.5 µg/mL; with E. coli 0015 it was 0.5 µg/mL. For the same molecule, the MIC of antibiotics with K. pneumoniae JIE2713 [2] was 128 µg/mL; in the assay with En. cloacae 001, 4 µg/mL; in the assay on K. pneumoniae JIE4212, >128 µg/mL; with En. cloacae 005 it was 16 µg/mL; in the assay with P. aeruginosa AR-1270, >128 µg/mL; in the assay on E. coli 0010, 2 µg/mL. Moreover, the MIC of antibiotics with En. cloacae 003 came out at 4 µg/mL. Moreover, the MIC in the assay with K. pneumoniae JIE2713 [3] came to 128 µg/mL. Also, in the assay on K. pneumoniae JIE2713 [3], the FICDrugB turned out to be 0.5. For the same molecule, the “MF of antibiotic (modulation factor)” value in the assay with K. pneumoniae JIE2713 [3] is reported as 2. Besides, the “MIC of DrugB + TM8” value in the assay on K. pneumoniae JIE2713 [3] came to 64 µg/mL.
With `CO/N=C(\C(=O)N[C@@H]1C(=O)N2C(C(=O)O)=C(COC(C)=O)CS[C@H]12)c1csc(N)n1` [Cefot, cefotaxime, reference compound], the MIC of antibiotics in the assay on A. baumannii 006 was 512 µg/mL; with K. pneumoniae JIE2709 [1] it was 32 µg/mL; in the assay with E. coli 0011 it was 4 µg/mL; with E. coli 005, 0.25 µg/mL; with E. coli 0015, 0.5 µg/mL; with K. pneumoniae JIE2713 [2], >512 µg/mL. Also, the MIC of antibiotics in the assay on En. cloacae 001 is 4 µg/mL; in the assay on K. pneumoniae JIE4212 it was >512 µg/mL; in the assay on En. cloacae 005, 128 µg/mL; with A. baumannii 005 it was 512 µg/mL; in the assay on A. baumannii ATCC 19 606 it was 8 µg/mL; in the assay on E. coli 0010, 2 µg/mL. For the same molecule, the figures for the MIC of antibiotics in the assay on A. baumannii 008, with A. baumannii 007 and in the assay on En. cloacae 003 were 512 µg/mL, 512 µg/mL and 8 µg/mL, respectively. In addition, the MIC with K. pneumoniae JIE2709 [4] (Klebsiella pneumoniae, read-out: MIC of DrugB (alone, checkerboard)) stood at 32 µg/mL; in the assay with K. pneumoniae JIE2713 [3], 1020 µg/mL. For the same molecule, the FICDrugB in the assay with K. pneumoniae JIE2709 [4] (in combination with TM8) and in the assay on K. pneumoniae JIE2713 [3] was 0.5 in each case. Further, the “MF of antibiotic (modulation factor)” value in the assay with K. pneumoniae JIE2709 [4] (in combination with TM8) and in the assay on K. pneumoniae JIE2713 [3] was 2 each time. Besides, the “MIC of DrugB + TM8” value in the assay on K. pneumoniae JIE2709 [4] (in combination with TM8) worked out at 16 µg/mL; in the assay on K. pneumoniae JIE2713 [3], 512 µg/mL.
For the molecule `O=C(O)c1cn(C2CC2)c2cc(N3CCNCC3)c(F)cc2c1=O` [Cip, ciprofloxacin], in the assay on K. pneumoniae JIE2709 [4] (in combination with TM8), the FICDrugB was 0.5 and the “MF of antibiotic (modulation factor)” value is reported as 2. Besides, in the assay on K. pneumoniae JIE2713 [3], the FICDrugB turned out to be 0.023, the “MF of antibiotic (modulation factor)” value worked out at 4 and the “MIC of DrugB + TM8” value was 32 µg/mL.
As to `CNC(C)C1CCC(N)C(OC2C(N)CC(N)C(OC3OCC(C)(O)C(NC)C3O)C2O)O1` (stereo not drawn) [Gen, gentamicin, reference compound], the MIC of antibiotics in the assay on A. baumannii 006 is >128 µg/mL; with K. pneumoniae JIE2709 [1], 0.5 µg/mL; in the assay on E. coli 0011, 0.5 µg/mL; with P. aeruginosa 33, >128 µg/mL; with E. coli 005 it was 0.25 µg/mL; in the assay with E. coli 0015, 0.5 µg/mL. The MIC of antibiotics was >128 µg/mL with K. pneumoniae JIE2713 [2]; 4 µg/mL in the assay with En. cloacae 001; 128 µg/mL in the assay on K. pneumoniae JIE4212; 0.25 µg/mL in the assay with En. cloacae 005; >128 µg/mL in the assay with P. aeruginosa AR-1270; >128 µg/mL with A. baumannii 005. In addition, the MIC of antibiotics was 4 µg/mL in the assay on A. baumannii ATCC 19 606; 0.25 µg/mL in the assay on E. coli 0010; >128 µg/mL with A. baumannii 008; >128 µg/mL in the assay on A. baumannii 007; 0.5 µg/mL in the assay on En. cloacae 003. The MIC with K. pneumoniae JIE2713 [3] was found to be 1020 µg/mL. Besides, the FICDrugB in the assay with K. pneumoniae JIE2713 [3] was 0.5. Besides, in the assay with K. pneumoniae JIE2713 [3], the “MF of antibiotic (modulation factor)” value is on record as 2. Besides, in the assay on K. pneumoniae JIE2713 [3], the “MIC of DrugB + TM8” value amounted to 512 µg/mL.

The record behind these values is PMC11879280, “Antimicrobial activity of peptoids against Metallo-β-lactamase-producing Klebsiella pneumoniae, Acinetobacter baumannii, Pseudomonas aeruginosa, and other WHO priority pathogens, including Candida auris” (Journal of Applied Microbiology, 2025).
